Data reported in US5705662A, “17-(3-imino-2-alkylpropenyl)-5β, 14β-androstane derivatives active on the cardiovascular system, processes for their preparation and pharmaceutical compositions containing same” (Sigma-Tau Industrie Farmaceutiche Riunite S.p.A., priority 1994, dated 1998).

Key:
[1] = test system: Na^+,K^+ -ATPase; conditions: J. Med. Chem. 1978, 21, 284; Quant. Struct.-Act. Relat. 1988, 7, 160; DE 4,227,605; DE 4,227,626; cited from earlier work
[2] = J. Med. Chem. 1978, 21, 284; Quant. Struct.-Act. Relat. 1988, 7, 160; cited from earlier work
[3] = target: T1, Na^+,K^+ -ATPase (Canis lupus familiaris, UniProt P50997); assay: displacement of the specific 3H-ouabain binding from the purified Na+,K+-ATPase receptor; conditions: 3H-ouabain displacement, purified Na+,K+-ATPase; read-out: Binding ^3 H-Ouab. Displacement log IC50 (converted)
T1 construct: Na^+,K^+ -ATPase receptor purified according to Jorghensen; from tissue
From the text: (§1) To test the affinity for the receptor site of the Na^+,K^+ -ATPase and the agonist or antagonist activity on the enzyme, the following tests were used:
a) displacement of the specific ^3 H-ouabain binding from the Na^+,K^+ -ATPase receptor purified according to Jorghensen (Jorghensen P., BBA. 1974, 356, 36) and Erdmann (Erdmann E. et al., Arzneim. Forsh., 1984, 34, 1314);

[4] = target: T1, Na^+,K^+ -ATPase; assay: inhibition of the activity of the purified Na+,K+-ATPase (% hydrolysis of 32P-ATP); assay type: biochemical; conditions: purified Na+,K+-ATPase, 32P-ATP hydrolysis; read-out: Inhibitory Activity log IC50 (converted)
From the text: as §1
b) inhibition of the activity of the purified Na^+,K^+ -ATPase measured as % of hydrolysis of ^32 P-ATP in presence and in absence of the tested compound (Doucet A. et al. Am. J. Physiol., 1986, 251, F851)

[5] = effect of 5 week-treatment on the development of hypertension in MHS rats (SBP and HR, tail cuff method); assay type: in vivo, rat (MHS); conditions: 10 mg/Kg/os daily in Methocel 0.5% w/v, 5 weeks, controls 375 +/- 7.3
Method: (§2) Systolic blood pressure (SBP) and heart rate (HR) were measured. by the tail cuff method, in young prehypertensive male rats (MHS or SHR) strains before the development of hypertension (4 weeks of age) for recording the basal values of SBP. Groups of 7 rats were formed and subdivided in control and treated groups. The compound, suspended in Methocel 0.5 % (w/v). was orally given daily for at least 5 weeks to the treated groups. The control group received only Methocel.
(§3) SBP and HR were measured weekly 6 and 24 hrs after treatment. After 5 weeks of treatment, when hypertension was fully developed in the control group (9 weeks of age), washout was started for at least one week, to verify whether the treatment maintained blood pressure low or reestablished the basal values. […] (Takeda K. et al., Japan J. Pharmacol., 1979, 29,171: Takeda K. et al. Japan J. Pharmacol., 1982, 32, 283; Richer C. et al. Eur. J. Pharmacol, 1978, 47,393).

[6] = test system: spontaneous hypertensive rats (MHS); assay: as above; assay type: in vivo, rat (MHS); conditions: 10 mg/Kg/os daily in Methocel 0.5% w/v, 5 weeks, controls 171 +/- 4.5
Method: as §2, §3

SMILES	inhibition of Na+,K+-ATPase (in words) [1]	positive inotropic activity (in words) [2]	IC50 [3]	IC50 [4]	HR [5]	SBP [6]
C[C@]12CC[C@H](O)C[C@H]1CC[C@@H]1[C@@H]2CC[C@]2(C)[C@@H](C=NNC(=N)N)CC[C@]12O [17β-guanidinoiminomethyl-5β-androstane-3β,14β-diol]	weak inhibitors of Na^+,K^+ -ATPase	weak positive inotropic agents				
CC(/C=N/NC(=N)N)=C\[C@H]1CC[C@]2(O)[C@@H]3CC[C@@H]4C[C@@H](O)CC[C@]4(C)[C@H]3CC[C@]12C [Comp. I-aa, (E,E)-17β-(3-Guanidinoimino-2-methyl-1-propenyl)-5β-androstane-3β,14β-diol]			31.6 nM	251 nM	374 +/- 9.5 beats/min.	148 +/- 5.7 mm Hg
CC(/C=N/OCCN)=C\[C@H]1CC[C@]2(O)[C@@H]3CC[C@@H]4C[C@@H](O)CC[C@]4(C)[C@H]3CC[C@]12C [Comp. I-af, (E,E)-17β-[3-(2-Aminoethoxyimino)-2-methyl-1-propenyl]-5β-androstone-3β,14β-diol]			20 nM	31.6 nM	380 +/- 3.9 beats/min.	146 +/- 6.1 mm Hg
